Measurements as given in patent US20070134261A1, “Effectors of innate immunity” (priority 2001, published 2007).
Where two headings read alike, the source gives them in different places. No end group written: not given here.

Assays:
[1] = tested on: A549 human epithelial cells; test: Induction of chemokines (IL-8, MCP-1) in A549 cells (ELISA); format: cell-based; conditions: peptide 10 ug/ml, 24 hr
Experimental: The murine macrophage cell line RAW 264.7, THP-1 cells (human monocytes), a human epithelial cell line (A549), human bronchial epithelial cells (16HBEo14), and whole human blood were used. HBE cells were grown in MEM with Earle's. THP-1 cells were grown and maintained in RPMI 1640 medium. The RAW and A549 cell lines were maintained in DMEM supplemented with 10% fetal calf serum. […] DMEM was aspirated from cells grown overnight and replaced with fresh medium. After incubation of the cells with peptide, the release of chemokines into the culture supernatant was determined by ELISA (R&D Systems, Minneapolis, Minn.).

[2] = format: cell-based
[3] = tested on: human PBMC; test: TLR agonist / cytokine induced cytokine secretion by PBMC (ELISA, multiplex bead immunoassay); format: cell-based
Experimental: All assays were performed in triplicate.

[4] = tested on: RAW 264.7 mouse macrophage cells; format: cell-based; conditions: Peptide 20 μg/ml; 100 ng/ml E. coli 0111:B4 LPS, 6 h
[5] = tested on: A549 epithelial cells; test: Human Operon arrays (PRHU04-S1) of A549 cells treated with peptide alone (Tables 31-37, 53); conditions: peptide 50 μg/ml, 4 h, A549 cells
[6] = tested on: HBE cells; test: WST-1 assay (cell viability); format: cell-based, human
Experimental: (§1) The potential toxicity of the peptides was measured in two ways. First, the Cytotoxicity Detection Kit (Roche) (Lactate dehydrogenase-LDH) Assay was used. It is a colorimetric assay for the quantification of cell death and cell lysis, based on the measurement of LDH activity released from the cytosol of damaged cells into the supernatant. LDH is a stable cytoplasmic enzyme present in all cells and it is released into the cell culture supernatant upon damage of the plasma membrane. An increase in the amount of dead or plasma membrane-damaged cells results in an increase of the LDH enzyme activity in the culture supernatant as measured with an ELISA plate reader, OD490 nm (the amount of color formed in the assay is proportional to the number of lysed cells). In this assay, human bronchial epithelial cells (I6HBEo14, HBE) cells were incubated with 100 μg of peptide for 24 hours, the supernatant removed and tested for LDH. The other assay used to measure toxicity of the cationic peptides was the WST-1 assay (Roche). This assay is a colorimetric assay for the quantification of cell proliferation and cell viability, based on the cleavage of the tetrazolium salt WST-1 by mitochondrial dehydrogenases in viable cells (a non-radioactive alternative to the [^3H]-thymidine incorporation assay). In this assay, HBE cells were incubated with 100 μg of peptide for 24 hours, and then 10 μl/well Cell Proliferation Reagent WST-1 was added. The cells are incubated with the reagent and the plate is then measured with an ELISA plate reader, OD490 nm.

[7] = tested on: human bronchial epithelial cells (HBE); test: LDH release assay (Cytotoxicity Detection Kit); format: cell-based; conditions: 100 μg/ml, 24 hours; no peptide control 1.0 ± 0.05
Experimental: as §1

[8] = Staphylococcus aureus, overnight, 96-well plate
[9] = Citobacter rhodensis, overnight, 96-well plate
[10] = Enterohaemorrhagic E. coli, overnight, 96-well plate
[11] = Escherichia coli, overnight, 96-well plate
[12] = Pseudomonas aeruginosa, overnight, 96-well plate
[13] = Salmonella enteritidis ssp. typhimurium, overnight, 96-well plate

Compound | IL-8 [1] | MIC, C. rhod. ([2]; 24 h) | MIC, E. coli ([2]; 24 h) | MIC, EHEC ([2]; 24 h) | MIC, P. aerug. ([2]; 24 h) | MIC, S. typhim. ([2]; 24 h) | MIC, S. aureus [2, 8] | OD490 nm (WST-1 cell viability) [6] | LDH Release (OD490 nm) [7] | other results
KWKHALMKAHMLWHMIFHTALKPISS [SEQ ID NO: 52] | 0.207 ng/mL | 2 µg/mL | 8 µg/mL | 2 µg/mL | 32 µg/mL | 8 µg/mL | > | – | – | –
TNF-α | – | – | – | – | – | – | – | – | – | IL-1β, Ave pg/ml ([3]; 4 hr, TNF-α −SEQ ID NO: 1): 74 pg/mL; IL-8, Ave pg/ml ([3]; 4 hr, TNF-α −SEQ ID NO: 1): 54 pg/mL; IL-1β, Ave pg/ml ([3]; 24 hr, TNF-α −SEQ ID NO: 1): 94 pg/mL; IL-6, Ave pg/ml ([3]; 24 hr, TNF-α −SEQ ID NO: 1): 9 pg/mL; IL-8, Ave pg/ml ([3]; 24 hr, TNF-α −SEQ ID NO: 1): 4410 pg/mL
PAM3 | – | – | – | – | – | – | – | – | – | IL-1β, Ave pg/ml ([3]; 4 hr, PAM3 −SEQ ID NO: 1): 34 pg/mL; IL-6, Ave pg/ml ([3]; 4 hr, PAM3 −SEQ ID NO: 1): 435 pg/mL; IL-8, Ave pg/ml ([3]; 4 hr, PAM3 −SEQ ID NO: 1): 738 pg/mL; TNF-α, Ave pg/ml ([3]; 4 hr, PAM3 −SEQ ID NO: 1): 830 pg/mL; IL-1β, Ave pg/ml ([3]; 24 hr, PAM3 −SEQ ID NO: 1): 512 pg/mL; IL-6, Ave pg/ml ([3]; 24 hr, PAM3 −SEQ ID NO: 1): 7734 pg/mL; IL-8, Ave pg/ml ([3]; 24 hr, PAM3 −SEQ ID NO: 1): 7620 pg/mL; TNF-α, Ave pg/ml ([3]; 24 hr, PAM3 −SEQ ID NO: 1): 2334 pg/mL
KWKRGAHRFMKFLSTIFHTALKPISS [SEQ ID NO: 49] | 0.301 ng/mL | 4 µg/mL | 4 µg/mL | 4 µg/mL | 16 µg/mL | 8 µg/mL | > | – | – | Inhibition of TNF-α [4]: 86.9 ± 0.69%
RPRYPWWPWWPYRPRK [SEQ ID NO: 19] | – | 4 µg/mL | 8 µg/mL | 4 µg/mL | 16 µg/mL | 64 µg/mL | – | 1.42 ± 0.15 OD490 nm | 1.08 ± 0.02 OD490 nm | ID#:ctrl intensity ratio, X65962 cytochrome P-450 [5]: 3.8; MIC, S. aureus ([2]; 24 h): 16 µg/mL
CC[C@H](C)[C@H](NC(=O)[C@@H](NC(=O)[C@H](CCCNC(=N)N)NC(=O)[C@@H](NC(=O)[C@@H]1CCCN1C(=O)[C@H](CO)NC(=O)[C@H](CCCCN)NC(=O)[C@H](Cc1ccccc1)NC(=O)[C@@H](NC(=O)[C@H](CCCNC(=N)N)NC(=O)[C@H](CC(C)C)NC(=O)[C@H](Cc1ccccc1)NC(=O)[C@H](CO)NC(=O)[C@H](CCCCN)NC(=O)[C@H](Cc1c[nH]c2ccccc12)NC(=O)[C@@H](N)CCCCN)[C@@H](C)O)C(C)C)[C@@H](C)O)C(=O)N[C@@H](Cc1ccccc1)C(=O)N[C@@H](Cc1c[nH]cn1)C(=O)N[C@H](C(=O)N[C@@H](C)C(=O)N[C@@H](CC(C)C)C(=O)N[C@@H](CCCCN)C(=O)N1CCC[C@H]1C(=O)N[C@H](C(=O)N[C@@H](CO)C(=O)N[C@@H](CO)C(=O)O)[C@@H](C)CC)[C@@H](C)O [SEQ ID NO: 47] | 0.383 ng/mL | – | – | – | – | – | > | 1.14 ± 0.23 OD490 nm | 1.05 ± 0.05 OD490 nm | Inhibition of TNF-α [4]: 36.9 ± 2.2%
ELPLKRGRVPVE [SEQ ID NO: 16] | – | – | – | – | – | – | – | 1.39 ± 0.26 OD490 nm | 0.91 ± 0.04 OD490 nm | ID#:ctrl intensity ratio, M14565 cytochrome P450 [5]: 10.1
KWKSLVMMFKKPARRIFHTALKPISS [SEQ ID NO: 51] | 0.255 ng/mL | – | – | – | – | – | > | – | – | MIC, C. rhod. [2, 9]: 4 µg/mL; MIC, EHEC [2, 10]: 8 µg/mL; MIC, E. coli [2, 11]: 4 µg/mL; MIC, P. aerug. [2, 12]: 8 µg/mL; MIC, S. typhim. [2, 13]: 32 µg/mL
5′-TCATGACGTTCCTGACGTT-3′ (chemistry not given here) [CpG, reference compound] | – | – | – | – | – | – | – | – | – | IL-6, Ave pg/ml ([3]; 4 hr, CpG −SEQ ID NO: 1): <7 pg/mL; IL-8, Ave pg/ml ([3]; 4 hr, CpG −SEQ ID NO: 1): 20 pg/mL; TNF-α, Ave pg/ml ([3]; 4 hr, CpG −SEQ ID NO: 1): 28 pg/mL; IL-6, Ave pg/ml ([3]; 24 hr, CpG −SEQ ID NO: 1): 66 pg/mL; IL-8, Ave pg/ml ([3]; 24 hr, CpG −SEQ ID NO: 1): 339 pg/mL; TNF-α, Ave pg/ml ([3]; 24 hr, CpG −SEQ ID NO: 1): 28 pg/mL
KKSPIAPAIPWSR (Cationic peptide) [SEQ ID NO: 8, Formula A cationic peptide] | – | – | – | – | – | – | > | – | – | Inhibition of TNF-α [4]: 39.3 ± 1.9%; MIC, E. coli [2, 11]: >
RPAWKYWWPWPWPRRK [SEQ ID NO: 22] | – | 4 µg/mL | 8 µg/mL | 4 µg/mL | 24 µg/mL | 8 µg/mL | – | 1.33 ± 0.07 OD490 nm | 1.29 ± 0.12 OD490 nm | ID#:ctrl intensity ratio, X65962 cytochrome P-450 [5]: 5.1; MIC, S. aureus ([2]; 24 h): 12 µg/mL
KWKKWAHSPRKVLTRIFHTALKPISS [SEQ ID NO: 50] | 0.141 ng/mL | 16 µg/mL | 8 µg/mL | 8 µg/mL | 16 µg/mL | 16 µg/mL | > | – | – | –
RREAIRRVAMRGRDMKRMRR [SEQ ID NO: 31] | – | – | – | 64 µg/mL | 128 µg/mL | – | – | 1.84 ± 0.06 OD490 nm | 0.98 ± 0.03 OD490 nm | –
KWKSYAHTIMSPVRLVFHTALKPISS [SEQ ID NO: 54] | 0.133 ng/mL | – | – | – | – | – | > | – | – | Inhibition of TNF-α [4]: 64 ± 0.73%; MIC, C. rhod. [2, 9]: 16 µg/mL; MIC, EHEC [2, 10]: 32 µg/mL; MIC, E. coli [2, 11]: 64 µg/mL; MIC, P. aerug. [2, 12]: 16 µg/mL; MIC, S. typhim. [2, 13]: 64 µg/mL
IL-1β | – | – | – | – | – | – | – | – | – | IL-6, Ave pg/ml ([3]; 4 hr, IL-1β −SEQ ID NO: 1): 39 pg/mL; IL-8, Ave pg/ml ([3]; 4 hr, IL-1β −SEQ ID NO: 1): 124 pg/mL; TNF-α, Ave pg/ml ([3]; 4 hr, IL-1β −SEQ ID NO: 1): 97 pg/mL; IL-6, Ave pg/ml ([3]; 24 hr, IL-1β −SEQ ID NO: 1): 645 pg/mL; IL-8, Ave pg/ml ([3]; 24 hr, IL-1β −SEQ ID NO: 1): 3034 pg/mL; TNF-α, Ave pg/ml ([3]; 24 hr, IL-1β −SEQ ID NO: 1): 20 pg/mL
